This passage reports EC50 results from US7956069B2, “Compounds” (AstraZeneca AB, priority 2006, dated 2011).

Holding throughout (assay type): cell-based
For experiment [1], the target named is T1, hM1 (human Muscarinic receptor subtype 1) (Homo sapiens, UniProt P11229).
T1 construct: expressed in transfected cells; host or cells: CHO cells (Chinese hamster ovary cells, ATCC)
T1 sequence (P11229 1-460): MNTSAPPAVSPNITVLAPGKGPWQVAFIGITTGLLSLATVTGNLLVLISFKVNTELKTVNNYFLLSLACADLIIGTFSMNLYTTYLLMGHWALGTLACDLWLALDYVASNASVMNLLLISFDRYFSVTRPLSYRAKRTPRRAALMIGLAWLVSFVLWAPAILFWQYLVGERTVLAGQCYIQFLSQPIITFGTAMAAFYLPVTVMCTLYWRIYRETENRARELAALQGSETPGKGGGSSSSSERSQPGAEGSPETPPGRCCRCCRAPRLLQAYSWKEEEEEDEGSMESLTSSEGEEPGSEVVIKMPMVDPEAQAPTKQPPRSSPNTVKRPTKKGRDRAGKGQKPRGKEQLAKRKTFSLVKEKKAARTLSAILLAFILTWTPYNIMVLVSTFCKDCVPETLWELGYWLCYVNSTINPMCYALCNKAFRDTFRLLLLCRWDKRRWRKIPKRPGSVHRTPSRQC
Nature of the experiment: Human M1 calcium mobilization FLIPR assay. The settings on record: CHO cells expressing hM1, Ca2+ release. Here is the method:
(§1) Biological Evaluation Human M1, Rat M1, Human M3 and Human M5 Calcium Mobilization FLIPR™ Assay
(§2) The compound activity in the present invention (EC50 or IC50) was measured using a 384 plate-based imaging assay that monitors drug induced intracellular Ca^2+ release in whole cells. Activation of hM1 (human Muscarinic receptor subtype 1, gene bank access NM_000738), rM1 (rat Muscarinic receptor subtype 1, gene bank access NM_080773), hM3 (human Muscarinic receptor subtype 3, gene bank access NM_000740NM_000740) and hM5 (human Muscarinic receptor subtype 5, gene bank access NM_0121258), receptors expressed in CHO cells (Chinese hamster ovary cells, ATCC) was quantified in a Molecular Devices FLIPR II™ instrument as an increase in fluorescent signal. Inhibition of hM3 and hM5 by compounds was determined by the decrease in fluorescent signal in response to 20 nM carbachol activation.
(§3) CHO cells were plated in 384-black polylysine coated plate (Costar) at 8000 cells/well/50 μl for 24 hours or 4000 cells/well for 48 hours in a humidified incubator (5% CO2 and 37° C.) in DMEM/F12 medium without selection agent. Prior to the experiment the cell culture medium was removed from the plates by inversion. A loading solution of 30 μl of Hank's balanced salt solution, 10 mM Hepes and 2.5 mM Probenicid at Ph 7.4 (Cat no. 311-520-VL, Wisent) with 2 μM calcium indicator dye (FLUO-3AM, Molecular Probes F14202) was added to each well. Plates were incubated at 37° C. for 60 minutes prior to start the experiment. The incubation was terminated by washing the cells four times in assay buffer, leaving a residual 25 μl buffer per well. Cell plates were then transferred to the FLIPR, ready for compound additions.
(§4) The day of experiment, carbachol and compounds were diluted in three-fold concentration range (10 points serial dilution) for addition by FLIPR instrument. For all calcium assays, a baseline reading was taken for 30 seconds followed by the addition of 12.5 μl (25 μl for hM1 and rM1) of compounds, resulting in a total well volume of 37.5 μl (50 μl for hM1 and rM1). Data were collected every 1.6 seconds for 300 seconds. For hM3 and hM5 an additional 12.5 μl of carbachol (20 nM final) was added at 300 seconds. After this addition of carbachol (producing a final volume of 50 μl), the FLIPR continued to collect data every 2 seconds for 240 seconds. The fluorescence emission was read using filter 1 (emission 520-545 nm) by the FLIPR on board CCD camera.
(§5) Calcium mobilization output data were calculated as the maximal relative fluorescence unit (RFU) minus the minal value for both compound and agonist reading frame (except for hM1 and rM1 using only the maximal RFU). Data were analyzed using sigmoidal fits of a non-linear curve-fitting program (XLfit version 5.0.6 from ID Business Solutions Limited, Guildford, UK). All EC50 and IC50 values are reported as arithmetic means±standard error of mean of ‘n’ independent experiments.

Experiment [2] deals with T2, hM3 (human Muscarinic receptor subtype 3) (Homo sapiens, UniProt P20309).
T2 construct: expressed in transfected cells; host or cells: CHO cells (Chinese hamster ovary cells, ATCC)
T2 sequence (P20309 whole entry): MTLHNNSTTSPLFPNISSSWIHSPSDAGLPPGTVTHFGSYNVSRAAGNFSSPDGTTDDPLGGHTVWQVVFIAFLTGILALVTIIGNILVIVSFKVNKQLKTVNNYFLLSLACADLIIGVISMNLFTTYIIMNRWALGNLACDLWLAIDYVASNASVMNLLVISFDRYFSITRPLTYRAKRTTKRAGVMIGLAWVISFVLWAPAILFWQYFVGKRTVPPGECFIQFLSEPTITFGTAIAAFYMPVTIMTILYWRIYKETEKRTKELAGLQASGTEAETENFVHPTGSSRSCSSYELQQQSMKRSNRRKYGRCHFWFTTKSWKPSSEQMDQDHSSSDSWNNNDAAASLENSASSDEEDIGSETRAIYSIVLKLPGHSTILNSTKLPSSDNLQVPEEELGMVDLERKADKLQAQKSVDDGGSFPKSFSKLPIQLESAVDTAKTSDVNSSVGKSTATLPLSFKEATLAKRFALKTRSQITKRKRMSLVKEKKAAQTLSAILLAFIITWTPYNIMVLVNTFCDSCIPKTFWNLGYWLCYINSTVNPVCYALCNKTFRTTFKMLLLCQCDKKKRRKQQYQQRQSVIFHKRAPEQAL
The experiment can be described thus: Human M3 calcium mobilization FLIPR assay. The settings on record: CHO cells expressing hM3, Ca2+ release. Here is the method:
as §1, §2, §3, §4, §5
In general terms: Calcium assays in cells follow changes in intracellular calcium, usually with a dye or a luminescent sensor.

For experiment [3], the target named is T3, hM5 (human Muscarinic receptor subtype 5) (Homo sapiens, UniProt P08912).
T3 construct: expressed in transfected cells; host or cells: CHO cells (Chinese hamster ovary cells, ATCC)
T3 sequence (P08912 1-532): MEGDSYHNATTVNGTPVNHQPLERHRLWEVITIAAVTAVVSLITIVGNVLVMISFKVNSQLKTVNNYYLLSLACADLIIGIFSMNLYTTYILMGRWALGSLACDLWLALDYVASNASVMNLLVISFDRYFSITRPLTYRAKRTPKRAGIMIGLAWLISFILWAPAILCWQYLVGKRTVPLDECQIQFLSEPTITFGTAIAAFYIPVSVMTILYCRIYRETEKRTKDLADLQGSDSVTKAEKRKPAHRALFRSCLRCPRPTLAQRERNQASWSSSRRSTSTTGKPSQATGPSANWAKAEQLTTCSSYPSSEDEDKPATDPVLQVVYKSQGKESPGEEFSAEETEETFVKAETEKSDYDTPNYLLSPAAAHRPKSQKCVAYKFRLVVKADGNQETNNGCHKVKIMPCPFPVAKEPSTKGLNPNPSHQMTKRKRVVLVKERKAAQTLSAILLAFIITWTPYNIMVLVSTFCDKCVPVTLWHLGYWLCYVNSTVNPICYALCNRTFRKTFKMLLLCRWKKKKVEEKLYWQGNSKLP
The experiment can be described thus: Human M5 calcium mobilization FLIPR assay. The conditions noted are these: CHO cells expressing hM5, Ca2+ release. Here is the method:
as §1, §2, §3, §4, §5

Regarding `O=C(C1CCCC1)N1CCC(N2CCC(N3C(=O)N[C@@H]4CCCC[C@@H]43)CC2)CC1`, in experiment [1], the EC50 – broadly, the concentration that produces a half-maximal response – is 300 nM.

On to `O=C(c1ccccc1)N1CCC(N2CCC(N3C(=O)N[C@@H]4CCCC[C@H]43)CC2)CC1`, for which the EC50 in experiment [1] was found to be 600 nM.

`CCOC(=O)N1CCC(N2CCC(N3C(=O)N(C(C)C)[C@H]4CCCC[C@@H]43)CC2)CC1`: the figures for the EC50 in experiment [1], in experiment [2] and in experiment [3] were 1200 nM, over 40000 nM and over 40000 nM, respectively.

On to `Cc1ccccc1C(=O)N1CCC(N2CCC(N3C(=O)C[C@H]4CCCC[C@@H]43)CC2)CC1`, for which the EC50 in experiment [1] was 93 nM; in experiment [2], over 40000 nM; in experiment [3], over 40000 nM.

Take `O=C(C1CC1(F)F)N1CCC(N2CCC(N3C(=O)N[C@H]4CCCC[C@@H]43)CC2)CC1` (some centres unmarked): in experiment [1], the EC50 was determined as 81 nM.

For `CCNC(=O)N1CCC(N2CCC(N3C(=O)N[C@@H]4CCCC[C@H]43)CC2)C1` (mixture of isomers), the EC50 in experiment [1] turned out to be 1000 nM.

With `CCOC(=O)N1CCC(N2CCC(N3C(=O)C[C@H]4CCCC[C@@H]43)CC2)C1` (single isomer, unassigned), in experiment [1], the EC50 is 59 nM.
